Literature values in US20100247645A1 (priority 2007, published 2010).

Conditions: class 3 = high solubility, low permeability

Question: With `COCCCOc1cc(C[C@@H](C[C@H](N)[C@@H](O)C[C@H](C(=O)NCC(C)(C)C(N)=O)C(C)C)C(C)C)ccc1OC` [Aliskiren, 2(S),4(S),5(S),7(S)—N-(3-amino-2,2-dimethyl-3-oxopropyl)-2,7-di(1-methylethyl)-4-hydroxy-5-amino-8-[4-methoxy-3-(3-methoxy-propoxy)phenyl]-octanamide] as the compound, how does the “BCS (biopharmaceutical classification system) class” value read?
Answer: class 3
